Test results from PubChem BioAssay AID588645 (Sanford-Burnham Center for Chemical Genomics, 2011).
Calls of active or inactive are those of the source. No rule for the calls is given here.

Target: Intestinal-type alkaline phosphatase (Homo sapiens) (UniProt P09923)
Test: human IAP enzyme inhibitors, SAR follow-up, mouse IAP inhibitor project, biochemical, set 2 (AID 588645)
Conditions: human intestinal alkaline phosphatase enzymatic inhibition assay

Intestinal-type alkaline phosphatase (Homo sapiens), sequence (P09923 whole entry, looked up): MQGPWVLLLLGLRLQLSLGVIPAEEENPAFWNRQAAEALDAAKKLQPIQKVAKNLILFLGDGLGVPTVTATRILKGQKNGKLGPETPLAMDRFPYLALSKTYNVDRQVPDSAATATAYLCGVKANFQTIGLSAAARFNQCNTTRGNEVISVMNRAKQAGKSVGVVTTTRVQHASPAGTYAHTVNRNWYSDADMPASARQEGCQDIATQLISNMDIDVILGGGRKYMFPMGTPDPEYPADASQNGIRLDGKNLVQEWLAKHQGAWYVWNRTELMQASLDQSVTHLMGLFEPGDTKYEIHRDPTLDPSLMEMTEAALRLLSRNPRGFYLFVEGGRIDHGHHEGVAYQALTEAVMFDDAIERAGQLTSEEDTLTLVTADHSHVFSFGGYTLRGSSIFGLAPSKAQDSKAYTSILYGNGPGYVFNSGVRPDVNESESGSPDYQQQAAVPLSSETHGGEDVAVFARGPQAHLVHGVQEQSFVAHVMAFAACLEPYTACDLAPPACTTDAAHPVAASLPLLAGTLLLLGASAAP

Row | IC50 | SMILES
1 | > 100 µM (inactive) | O=C(CCCNS(=O)(=O)c1ccc2[nH]c(=O)oc2c1)NCc1cccc(F)c1
2 | > 100 µM (inactive) | Cc1ccc(C)c(CNC(=O)C2CCCN(S(=O)(=O)c3ccc4[nH]c(=O)oc4c3)C2)c1 (stereo unspecified)
3 | > 100 µM (inactive) | Cc1ccc(C)c(NC(=O)CCNS(=O)(=O)c2ccc3c(c2)CCC3)c1
4 | > 100 µM (inactive) | O=C(CCNS(=O)(=O)c1ccc2[nH]c(=O)oc2c1)NCc1ccccc1F
5 | > 100 µM (inactive) | COc1ccc(CCNC(=O)CCCNS(=O)(=O)c2ccc3[nH]c(=O)oc3c2)cc1OC
6 | > 100 µM (inactive) | Cc1ccc(C)c(NC(=O)CNS(=O)(=O)c2ccc3[nH]c(=O)oc3c2)c1
7 | > 100 µM (inactive) | Cc1ccc(C)c(NS(=O)(=O)c2ccc3[nH]c(=O)oc3c2)c1
8 | > 100 µM (inactive) | O=C(CCS(=O)(=O)Nc1ccc2[nH]c(=O)oc2c1)NCc1cccc(F)c1
9 | > 100 µM (inactive) | COc1ccc(CNC(=O)CCNS(=O)(=O)c2ccc3[nH]c(=O)oc3c2)cc1
10 | > 100 µM (inactive) | COc1cccc(NC(=O)CCNS(=O)(=O)c2ccc3c(c2)oc(=O)n3C)c1
11 | > 100 µM (inactive) | CSc1cccc(NC(=O)CCNS(=O)(=O)c2ccc3c(c2)oc(=O)n3C)c1
12 | > 100 µM (inactive) | O=C(NCc1ccc(F)cc1)C1CCCN(S(=O)(=O)c2ccc3[nH]c(=O)oc3c2)C1 (stereo unspecified)
13 | > 100 µM (inactive) | Cc1cc(NC(=O)CCNS(=O)(=O)c2ccc3[nH]c(=O)oc3c2)ccc1Br
14 | > 100 µM (inactive) | Cc1ccc(C)c(NC(=O)CCNS(=O)(=O)c2ccc3[nH]c(=O)oc3c2)c1
15 | > 100 µM (inactive) | O=C(N/N=C/c1cc(Br)ccc1F)c1ccc(O)cc1
16 | > 100 µM (inactive) | Cc1ccc(NC(=O)CCNS(=O)(=O)c2ccc3c(c2)oc(=O)n3C)cc1
17 | > 100 µM (inactive) | COc1ccc(C(=O)N/N=C/c2c(F)cccc2Cl)cc1OC
18 | > 100 µM (inactive) | O=C(N/N=C/c1ccc(F)c(Br)c1)c1cc(O)c(O)c(O)c1
19 | > 100 µM (inactive) | O=C(NN=Cc1ccccc1F)c1ccc(O)cc1
20 | > 100 µM (inactive) | COc1ccc(OC)c(NC(=O)CCNS(=O)(=O)c2ccc3c(c2)oc(=O)n3C)c1
21 | > 100 µM (inactive) | O=C(NCc1ccc2c(c1)OCO2)C1CCCN(S(=O)(=O)c2ccc3[nH]c(=O)oc3c2)C1 (stereo unspecified)
22 | > 100 µM (inactive) | O=C(N/N=C/c1ccc(Cl)c(Cl)c1)c1cc(O)c(O)c(O)c1

Row | IC50 | SMILES
23 | > 100 µM (inactive) | COc1ccc(CCNC(=O)CCCNS(=O)(=O)c2ccc3[nH]c(=O)oc3c2)cc1
24 | > 100 µM (inactive) | COc1ccccc1CNC(=O)CCCNS(=O)(=O)c1ccc2[nH]c(=O)oc2c1
25 | > 100 µM (inactive) | O=C(CCNS(=O)(=O)c1ccc2[nH]c(=O)oc2c1)NCc1ccc(C(F)(F)F)cc1
26 | > 100 µM (inactive) | COc1cccc(C(=O)N/N=C/c2ccccc2F)c1
27 | > 100 µM (inactive) | N#Cc1cccc(CNC(=O)CCNS(=O)(=O)c2ccc3[nH]c(=O)oc3c2)c1
28 | > 100 µM (inactive) | O=C(CCNS(=O)(=O)c1ccc2[nH]c(=O)oc2c1)NCCc1ccc2c(c1)OCO2
29 | > 100 µM (inactive) | O=C(CCNS(=O)(=O)c1ccc2[nH]c(=O)oc2c1)NCc1ccccc1
30 | > 100 µM (inactive) | O=C(N/N=C/c1ccccc1F)c1ccc(O)cc1O
31 | > 100 µM (inactive) | N#Cc1cccc(NS(=O)(=O)c2ccc3[nH]c(=O)oc3c2)c1
32 | > 100 µM (inactive) | O=C(CCNS(=O)(=O)c1ccc2[nH]c(=O)oc2c1)NCc1cccc(C(F)(F)F)c1
33 | > 100 µM (inactive) | COc1cccc(/C=N/NC(=O)c2cc(O)c(O)c(O)c2)c1O
34 | > 100 µM (inactive) | COc1ccc(/C=N/NC(=O)c2cc(O)c(O)c(O)c2)cc1OC
35 | > 100 µM (inactive) | CCOc1cc(C(=O)N/N=C/c2ccccc2F)cc(OCC)c1OCC
36 | 18.1 µM | O=C(CCNS(=O)(=O)c1ccc2[nH]c(=O)oc2c1)NCc1ccc(O)c(O)c1
37 | > 100 µM (inactive) | COc1ccc(/C=N/NC(=O)c2cc(O)c(O)c(O)c2)c(OC)c1
38 | > 100 µM (inactive) | Cc1ccc(NC(=O)CCNS(=O)(=O)c2ccc3c(c2)oc(=O)n3C)c(C)c1
39 | > 100 µM (inactive) | COc1ccc(C(=O)N/N=C/c2ccccc2F)cc1
40 | > 100 µM (inactive) | COc1cccc(CNC(=O)CCNS(=O)(=O)c2ccc3[nH]c(=O)oc3c2)c1
41 | > 100 µM (inactive) | N#Cc1cccc(NC(=O)CNS(=O)(=O)c2ccc3[nH]c(=O)oc3c2)c1
42 | > 100 µM (inactive) | Cc1ccc(CNC(=O)C2CCCN(S(=O)(=O)c3ccc4[nH]c(=O)oc4c3)C2)cc1 (stereo unspecified)
43 | > 100 µM (inactive) | COc1ccc(CNS(=O)(=O)c2ccc3[nH]c(=O)oc3c2)c(OC)c1
44 | > 100 µM (inactive) | O=C(NCc1ccccc1)C1CCCN(S(=O)(=O)c2ccc3[nH]c(=O)oc3c2)C1 (stereo unspecified)

Row | IC50 | SMILES
45 | > 100 µM (inactive) | N#Cc1ccc(NS(=O)(=O)c2ccc3[nH]c(=O)oc3c2)cc1
46 | > 100 µM (inactive) | COc1ccc(CNC(=O)C2CCCN(S(=O)(=O)c3ccc4[nH]c(=O)oc4c3)C2)cc1 (stereo unspecified)
47 | > 100 µM (inactive) | CC(C)c1ccc(NC(=O)C2CCCN(S(=O)(=O)c3ccc4c(c3)oc(=O)n4C)C2)cc1 (stereo unspecified)
48 | > 100 µM (inactive) | COc1ccc(CNC(=O)CCCNS(=O)(=O)c2ccc3[nH]c(=O)oc3c2)c(OC)c1
49 | > 100 µM (inactive) | O=C(N/N=C/c1ccc(Br)cc1F)c1cc(O)ccc1O
50 | > 100 µM (inactive) | O=C(N/N=C/c1ccccc1F)c1ccc(O)cc1
51 | > 100 µM (inactive) | N#Cc1ccc(NC(=O)CNS(=O)(=O)c2ccc3[nH]c(=O)oc3c2)cc1
52 | > 100 µM (inactive) | COc1ccc(NC(=O)CCNS(=O)(=O)c2ccc3[nH]c(=O)oc3c2)cc1OC
53 | > 100 µM (inactive) | COc1cc(C(=O)N/N=C/c2c(F)cccc2Cl)cc(OC)c1OC
54 | > 100 µM (inactive) | COc1ccc(CNC(=O)CCNS(=O)(=O)c2ccc3ccccc3c2)c(OC)c1
55 | > 100 µM (inactive) | COc1ccc(CNS(=O)(=O)c2ccc3[nH]c(=O)oc3c2)cc1
56 | > 100 µM (inactive) | O=C(N/N=C/c1c(Cl)cccc1Cl)c1cc(O)c(O)c(O)c1
57 | > 100 µM (inactive) | COc1ccc(NC(=O)CCNS(=O)(=O)c2ccc3c(c2)CCC3)cc1OC
58 | > 100 µM (inactive) | O=c1[nH]c2ccc(S(=O)(=O)Nc3ccc4c(c3)OCO4)cc2o1
59 | > 100 µM (inactive) | O=C(CCCNS(=O)(=O)c1ccc2[nH]c(=O)oc2c1)NCc1ccc2c(c1)OCO2
60 | > 100 µM (inactive) | CC(C)c1ccc(NC(=O)CCNS(=O)(=O)c2ccc3c(c2)oc(=O)n3C)cc1
61 | > 100 µM (inactive) | COc1cccc(CNC(=O)CNS(=O)(=O)c2ccc3[nH]c(=O)oc3c2)c1
62 | > 100 µM (inactive) | O=C(CCNS(=O)(=O)c1ccc2[nH]c(=O)oc2c1)NCc1ccc(F)cc1
63 | > 100 µM (inactive) | O=C(N/N=C/c1c(F)cccc1Cl)c1cc(O)c(O)c(O)c1
64 | > 100 µM (inactive) | COc1ccc(CNC(=O)CNS(=O)(=O)c2ccc3[nH]c(=O)oc3c2)c(OC)c1
65 | > 100 µM (inactive) | CC(=NNC(=O)c1ccccc1OCCOc1ccccc1)c1ccccc1F
66 | > 100 µM (inactive) | O=C(N/N=C/c1ccccc1C(F)(F)F)c1cc(O)c(O)c(O)c1
